Assay results as given in paper PMC12323867 (RSC Medicinal Chemistry, 2025).
pIC50: −log10 of the molar value.

Tests used:
[1] = tested on: H3K4me2 in HCT116 cells; experiment: Histone methylation H3K4me2 by western blot; assay type: cell-based, human; conditions: HCT116, 0.1–10 μM, 24 hours, H3K4me2 antibody
Method: We next screened 25–33 and SP2509 over a concentration range of 0.1–10 μM in HCT116 cells (obtained from ATCC, CCL-247) and determined LSD1 abundance after 24 hours with an antibody for LSD1 (Fig. S4 ^†). […] Using the same conditions, we also determined the effects of SP2509, 25, 27, 28, 30 and 31 on histone H3 lysine 4 dimethyl (H3K4me2) a validated substrate for LSD1 using a specific antibody for H3K4me2 (Fig. S4 ^†).
Compounds 39–41, 49, 52 and 54 were screened for LSD1 degradation in HCT116 cells using a specific antibody for LSD1. This was performed side-by-side with TCP. Compounds were tested at concentration ranges of 0.2–20 μM and LSD1 abundance was quantified at 24 hours (Fig. S5 ^†). 49, 52 and 54 were also evaluated at 48 and 72 hours. […] We also determined the effects of these compounds on the histone methyl marker H3K4me2 (Fig. S5 and S6 ^†).
2.5 Protocols for LSD1 degradation and histone methylation in HCT116 cells HCT116 human colon carcinoma cells were grown in Dulbecco’s Modified Eagle Medium (DMEM) supplemented with Fetal Bovine Serum (FBS, 10% final concentration) and 1x glutamine/penicillin/streptomycin. Cells were incubated at 37 °C and 5% CO2. Cells were treated with compounds (0.1-20 µM) with a final DMSO volume of 0.04%. DMSO (0.04%) treated and untreated (WT) cells were included as controls.
HCT116 cells were seeded into six well plates (400000 cells per well) and after requisite compound treatment time (24h, 48h, 72h) cells were harvested and either snap-frozen in liquid nitrogen or lysed in lysis buffer (50mM Tris-HCl, 150 mM NaCl, 0.5% NP-40, 0.5% Triton X-100 + protease inhibitor) on ice for 30 mins. This was centrifuged (15000 rpm, 4 °C, 15 mins) and the supernatant collected.
H2SO4 (0.4 M, equal volume) was added to the pellets for histone extraction and the tubes incubated overnight at 4 °C. Following this, the histone extract was centrifuged (15000 rpm, 4 °C, 15 mins) and the supernatant collected. Protein concentrations of whole cell extract were quantified via Bradford Assay using BIO-RAD Protein Assay Dye Reagent Concentrate.
Western blots were run on NuPAGE 4-12% Bis-Tris gels, with 30 µg of protein (whole cell extract) or an equivalent volume of histone extract loaded per lane, with all extracts dyed with 4x NuPAGE LDS Sample Buffer. PageRuler Plus Prestained Ladder was used as a reference. Gel electrophoresis was carried out at 140 V for 60-90 mins, following which the proteins were transferred onto nitrocellulose membrane at 30 V for 60 mins. Membranes were blocked in LI-COR Intercept Blocking Buffer overnight at RT on a roller, following which the membrane was probed with primary antibodies for 1 h at RT. The membrane was washed with PBS + 0.1% Tween (3 x 10 mins), then incubated with secondary antibodies for 50 mins at RT. The membrane was washed again (PBS Tween 2 x 10 mins, PBS 1 x 10 mins) following which the blot was visualised with the Odyssey Infrared Imaging System. Image processing and quantification was performed with ImageStudio Lite. […]
a-tubulin (mouse) – Sigma, t5168 (1:10000 dilution)

[2] = tested on: LSD1; conditions: evaluated not part of the CoREST complex; read-out: LSD1 IC50; cited from earlier work
[3] = tested on: HCT116 cells; experiment: CTG cell viability assay; assay type: cell-based, human; conditions: HCT116, CellTiter-Glo, 0.0041-10 uM, 24-48 h (Fig. S3)
Method: 2.4. CTG cell viability assays
HCT116 cells were seeded onto 96-well plates at a density of 2000 cells/well and allowed 24 h to settle. Cells were then treated with LSD1 inhibitors (0.0041-10 uM) alongside WT, DMSO and cell free control wells for 24-48 h. After this time, plates were equilibrated to RT for 30 mins, then CellTiter-Glo (Promega, G9242) reagent (5 uL/100 uL media) was added. Cells were lysed on an orbital shaker for 10 mins, then incubated at RT for 2 mins to allow luminescence to stabilise, following which luminescence was recorded on a HiDEX Sense microplate reader. To obtained plotted values, luminescence of each tested well was divided by that of the DMSO control, which were plotted against concentration using GraphPad Prism. […] was applied to obtain apparent IC50 values where possible.
Figure S3. Cell viability dose response curves
(1 picture or pasted object on this page, not shown here)

Structure (SMILES): C/C(=N\NC(=O)c1cccc(S(=O)(=O)N2CCOCC2)c1)c1cc(Cl)ccc1O [SP2509, reference compound]
- H3K4me2 abundance [1]: no increase in H3K4me2
- pIC50 [2]: 7.89
- cytotoxic effects in cells [3]: significant cytotoxic effects
